The text below walks through data of ChEMBL document CHEMBL1201862, “PubChem BioAssay data set” (2004).

Some test systems named below: NCI-H23; NCI-H522; HT-29; SNB-19; UO-31; MCF7; NCI-H460; Malme-3M; SK-MEL-2; SNB-75; TK-10; HCT-116; HOP-62; U-251; SK-MEL-5; A498; HCC 2998; SF-295; HL-60; SF-539.
Assay in all cases: growth of human tumour cells (NCI), 48 h

SMILES strings stand for the structures.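 1) Cells in 96-well plates. 2) Compound, 48 h, 5 concentrations. 3) Linear interpolation between surrounding doses. 4) Unreached endpoint = highest concentration. Abbreviation: GI50, concentration required for 50% inhibition of growth.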 Activity calls are given as the source filed them. Rule as the data show it: active = GI50 up to about 1.1 µM and inactive = higher.

On to `CC(=O)[C@H]1[C@H](O)C[C@@]2(C)[C@@H]3CCc4cc(O)c(OC5OC(CO)C(O)C(O)C5O)cc4C3(C)C(=O)C[C@]12C` (stereo not given in full), for which the GI50 in the test with NCI-H23, in the test on NCI-H522, in the test with HT-29, in the test with SNB-19, in the test with UO-31 and in the test on MCF7 was > 100 µM (inactive) in each case. The GI50 in the test with NCI-H460, in the test on Malme-3M, with SK-MEL-2, with SNB-75, with TK-10 and in the test on HCT-116 was > 100 µM (inactive) each time. Besides, the GI50 in the test on HOP-62, with U-251, in the test on SK-MEL-5, in the test on A498, in the test on HCC 2998 and in the test with SF-295 was > 100 µM (inactive) in each case. In addition, the GI50 in the test on HL-60 and with SF-539 was > 100 µM (inactive) each time.

As for `CC(=O)NCCCCCCNC(C)=O` [HEXAMETHYLENEBISACETAMIDE], the GI50 is 9160 µM (inactive) in the test with NCI-H23; 3230 µM (inactive) in the test with NCI-H522; 4840 µM (inactive) in the test with HT-29; 8510 µM (inactive) in the test on SNB-19; 5250 µM (inactive) in the test with UO-31; 3480 µM (inactive) with MCF7. Further, the GI50 in the test with NCI-H460 was 4810 µM (inactive); in the test with Malme-3M it was 3160 µM (inactive); in the test on SK-MEL-2, 6590 µM (inactive); in the test on SNB-75, 2840 µM (inactive); in the test on TK-10 it was 4300 µM (inactive); in the test on HCT-116 it was 8470 µM (inactive). For the same compound, the GI50 in the test on HOP-62 was 6590 µM (inactive); in the test with U-251, 7830 µM (inactive); with SK-MEL-5 it was 6700 µM (inactive); in the test on A498 it was 5790 µM (inactive); with HCC 2998 it was 4290 µM (inactive); in the test on SF-295 it was 6370 µM (inactive). The GI50 in the test with HL-60 is 3450 µM (inactive); in the test with SF-539 it was 6070 µM (inactive).

`CN(Cc1cnc2nc(N)nc(N)c2n1)c1ccc(C(=O)NCCCC(=O)O)cc1`: the GI50 in the test on NCI-H23 was 37.3 µM (inactive); in the test with NCI-H522, 16.2 µM (inactive); in the test with HT-29, > 100 µM (inactive); with SNB-19 it was > 63.1 µM (inactive); in the test on UO-31 it was 17.5 µM (inactive); in the test with MCF7, 5.02 µM (inactive). The GI50 in the test with NCI-H460 is 7.24 µM (inactive); in the test with Malme-3M, 95.9 µM (inactive); with SK-MEL-2, > 100 µM (inactive); in the test on SNB-75, > 62.7 µM (inactive); with TK-10, > 69 µM (inactive); in the test on HCT-116, 3.39 µM (inactive). The GI50 was 58.6 µM (inactive) in the test on HOP-62; 77.3 µM (inactive) with U-251; 49.2 µM (inactive) in the test on SK-MEL-5; > 100 µM (inactive) in the test on A498; > 100 µM (inactive) in the test on HCC 2998; 12.3 µM (inactive) with SF-295. The values for the GI50 with HL-60 and with SF-539 were > 100 µM (inactive) and 8.75 µM (inactive), respectively.

Turning to `O=C(CSCC(=O)N/N=C/c1ccc2c(c1)OCO2)N/N=C/c1ccc2c(c1)OCO2`, the GI50 with NCI-H23 was 27 µM (inactive); with NCI-H522, 64.1 µM (inactive); in the test with HT-29 it was > 100 µM (inactive); with SNB-19, > 100 µM (inactive); in the test on UO-31, > 100 µM (inactive); in the test on MCF7, 63 µM (inactive). In addition, the GI50 with NCI-H460 is > 100 µM (inactive); in the test on Malme-3M, 49.2 µM (inactive); in the test with SK-MEL-2 it was > 100 µM (inactive); in the test on SNB-75, > 100 µM (inactive); with TK-10, > 100 µM (inactive); in the test with HCT-116, 85.7 µM (inactive). Further, the GI50 was > 100 µM (inactive) with HOP-62; > 100 µM (inactive) with U-251; 24.2 µM (inactive) with SK-MEL-5; > 100 µM (inactive) in the test on A498; > 100 µM (inactive) in the test on HCC 2998; 44.6 µM (inactive) in the test on SF-295. For the same compound, the GI50 was 58.9 µM (inactive) with HL-60 and > 100 µM (inactive) in the test with SF-539.

For `C/C(=N/NC(N)=S)c1ccc[nH]1`, the GI50 with NCI-H23, in the test with NCI-H522, in the test with HT-29, in the test on SNB-19, in the test on UO-31 and with MCF7 was > 100 µM (inactive) in each case. Besides, the GI50 with NCI-H460, in the test with Malme-3M, with SK-MEL-2, with SNB-75, in the test with TK-10 and in the test on HCT-116 was > 100 µM (inactive) each time. Moreover, the GI50 in the test on HOP-62, in the test with U-251, in the test with SK-MEL-5, with A498, with HCC 2998 and in the test on SF-295 was > 100 µM (inactive) in each case. Moreover, the GI50 with HL-60 and in the test on SF-539 was > 100 µM (inactive) each time.

For `CCCc1ccc(OCC(=O)N/N=C/c2c(-c3ccccc3)[nH]c3ccccc23)cc1`, the GI50 in the test with NCI-H23 is 13.6 µM (inactive); with NCI-H522, 14.6 µM (inactive); with HT-29, 6.64 µM (inactive); with SNB-19, 35.8 µM (inactive); in the test on UO-31 it was 24 µM (inactive); with MCF7, 4.57 µM (inactive). The GI50 was 4 µM (inactive) with NCI-H460; 7.85 µM (inactive) in the test with Malme-3M; 3.23 µM (inactive) in the test with SK-MEL-2; 19.2 µM (inactive) in the test on SNB-75; 17.1 µM (inactive) in the test on TK-10; 8.97 µM (inactive) in the test with HCT-116. In addition, the GI50 with HOP-62 was 12.9 µM (inactive); with U-251, 6.19 µM (inactive); in the test with SK-MEL-5, 8.43 µM (inactive); in the test with A498 it was 14.4 µM (inactive); in the test on HCC 2998, 4.04 µM (inactive); with SF-295, 8.69 µM (inactive). The GI50 in the test on HL-60 is 3.96 µM (inactive); in the test on SF-539, 16.2 µM (inactive).

In the case of `CC(C)(O)CO/N=C1\C(=C2\C(=O)Nc3ccccc32)Nc2ccccc21`, the GI50 in the test on NCI-H23 is 1.18 µM (inactive); in the test with NCI-H522, 1.87 µM (inactive); in the test on HT-29, 1.75 µM (inactive); with SNB-19, 4.24 µM (inactive); in the test with UO-31 it was 0.348 µM (active); with MCF7, 1.39 µM (inactive). In addition, the GI50 with NCI-H460 is 0.395 µM (active); in the test with Malme-3M, 4.3 µM (inactive); in the test with SK-MEL-2, 0.232 µM (active); with SNB-75, 0.811 µM (active); in the test on TK-10 it was 0.601 µM (active); in the test with HCT-116, 6.28 µM (inactive). Also, the GI50 in the test on HOP-62 was 2.1 µM (inactive); with U-251, 2.38 µM (inactive); in the test on SK-MEL-5, 0.423 µM (active); in the test on A498, 0.187 µM (active); with HCC 2998, 0.991 µM (active); in the test with SF-295, 2.52 µM (inactive). Also, the GI50 with HL-60 is 0.74 µM (active); with SF-539 it was 2.71 µM (inactive).

For `Cc1c(O)c(OC2OC(CO)C(O)C(O)C2O)cc2c1C=C[C@@H]1[C@@]2(C)C(=O)C[C@]2(C)[C@@H]([C@@](C)(O)C(O)/C=C/C(C)(C)O)[C@H](O)C[C@@]12C` (stereo not given in full), the GI50 in the test with NCI-H23, in the test on NCI-H522, in the test on HT-29, with SNB-19, in the test with UO-31 and in the test on MCF7 was > 100 µM (inactive) each time. The GI50 in the test on NCI-H460, with Malme-3M, with SK-MEL-2, in the test on SNB-75, in the test with TK-10 and in the test with HCT-116 was > 100 µM (inactive) in each case. For the same compound, the GI50 in the test on HOP-62, in the test on U-251, with SK-MEL-5, in the test with A498, with HCC 2998 and in the test with SF-295 was > 100 µM (inactive) in each case. In addition, the GI50 in the test with HL-60 and with SF-539 was > 100 µM (inactive) throughout.

Regarding `COc1cccc(-c2cc(O)c3c(C)ccnc3n2)c1`, the GI50 was 0.0625 µM (active) in the test on NCI-H23; 0.0275 µM (active) with NCI-H522; 0.0233 µM (active) in the test on HT-29; 0.031 µM (active) with SNB-19; 0.0703 µM (active) with UO-31; 0.0741 µM (active) in the test with MCF7. For the same compound, the GI50 is 0.0395 µM (active) with NCI-H460; < 0.01 µM (active) in the test on Malme-3M; 0.0695 µM (active) in the test on SK-MEL-2; 0.0143 µM (active) in the test on SNB-75; > 100 µM (inactive) with TK-10; 0.0392 µM (active) in the test on HCT-116. Moreover, the GI50 was 0.0463 µM (active) in the test on HOP-62; 0.036 µM (active) in the test on U-251; 0.0241 µM (active) in the test with SK-MEL-5; 0.0344 µM (active) in the test on A498; 0.0352 µM (active) in the test on HCC 2998; 0.029 µM (active) with SF-295. For the same compound, the GI50 was < 0.0114 µM (active) in the test on HL-60 and 0.0272 µM (active) with SF-539.
